Literature values, collected in EP2654723B1, “Solid pharmaceutical dosage forms comprising tadalafil and methods of preparation thereof” (Zaklady Farmaceutyczne Polpharma SA, priority 2010, dated 2012).

Assays:
[1] = at 37°C

With `CN1CC(=O)N2[C@H](c3ccc4c(c3)OCO4)c3[nH]c4ccccc4c3C[C@@H]2C1=O` [Tadalafil, (6R-trans)-6-(1,3-benzodioxol-5-yl)-2,3,6,7,12,12a-hexahydro-2-methyl-pyrazino [1', 2':1,6] pyrido[3,4-b]indole-1,4-dione] as the compound, how does the experimental water solubility [1] read?
Its experimental water solubility is “about 2 µg/mL”.

And the permeability?
The permeability was “low permeability”.

What about the BCS class (because of low solubility and low permeability) of the same compound?
The BCS class was “BCS class IV”.
